How the values were obtained:
human orexin-1 receptor = human orexin-1 receptor (Homo sapiens (Human), UniProt O43613); test: In vitro assay: intracellular calcium measurements (FLIPR), antagonistic activity; format: cell-based; details: CHO cells expressing human orexin-1 receptor, orexin-A agonist, geometric mean, read-out: IC50 Ox1
Outline: (§1)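 hOX1R/hOX2R CHO cells, fluo-4 AM + 5 mM probenecid, 50 min 37 °C then 30 min RT. Cpd 120 min, then orexin-A 3 nM final; FLIPR peak height vs vehicle. IC50, geometric mean of repeats.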

human orexin-2 receptor = human orexin-2 receptor (Homo sapiens (Human), UniProt O43614); test: as above; format: cell-based; details: CHO cells expressing human orexin-2 receptor, orexin-A agonist, geometric mean, read-out: IC50 Ox2
Outline: as §1

Sequence of human orexin-2 receptor (O43614 whole entry): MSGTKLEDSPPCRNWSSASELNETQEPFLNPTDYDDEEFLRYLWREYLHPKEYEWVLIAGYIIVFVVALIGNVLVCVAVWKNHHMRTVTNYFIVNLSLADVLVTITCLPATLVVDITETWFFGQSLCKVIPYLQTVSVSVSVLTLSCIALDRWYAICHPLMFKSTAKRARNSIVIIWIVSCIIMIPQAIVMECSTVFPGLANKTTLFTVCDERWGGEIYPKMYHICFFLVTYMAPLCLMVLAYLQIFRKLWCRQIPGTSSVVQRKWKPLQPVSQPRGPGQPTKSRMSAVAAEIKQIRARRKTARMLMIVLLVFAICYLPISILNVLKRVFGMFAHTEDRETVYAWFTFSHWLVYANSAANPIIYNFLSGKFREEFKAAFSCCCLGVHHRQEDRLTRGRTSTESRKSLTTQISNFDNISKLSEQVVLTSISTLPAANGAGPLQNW
Sequence of human orexin-1 receptor (O43613 whole entry): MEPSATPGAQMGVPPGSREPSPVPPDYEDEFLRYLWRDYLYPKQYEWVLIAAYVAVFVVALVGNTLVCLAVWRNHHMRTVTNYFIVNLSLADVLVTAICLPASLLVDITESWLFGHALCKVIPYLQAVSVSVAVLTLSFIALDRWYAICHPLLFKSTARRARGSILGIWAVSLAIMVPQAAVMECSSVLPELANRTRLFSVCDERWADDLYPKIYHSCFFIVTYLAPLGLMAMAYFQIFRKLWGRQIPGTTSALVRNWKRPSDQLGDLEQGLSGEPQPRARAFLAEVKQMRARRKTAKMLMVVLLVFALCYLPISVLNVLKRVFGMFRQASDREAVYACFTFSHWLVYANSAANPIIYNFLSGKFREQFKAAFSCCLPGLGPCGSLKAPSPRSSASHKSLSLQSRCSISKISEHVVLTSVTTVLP

| SMILES | IC50 (human orexin-1 receptor) | IC50 (human orexin-2 receptor) |
| --- | --- | --- |
| Cc1ccc(-n2nccn2)c(C(=O)N2CC[C@H](C)[C@H]2c2nc3c(C(F)(F)F)cccc3[nH]2)c1 [Ex. 4.34] | 37 nM | 1880 nM |
| COc1ccc(-n2nccn2)c(C(=O)N2CC[C@H](C)[C@H]2c2nc3c(C)c(Cl)ccc3[nH]2)c1 [Ex. 4.66] | 1 nM | 23 nM |
| Cc1c(Cl)ccc2[nH]c([C@@H]3[C@@H](C)CCN3C(=O)c3cc(C(F)(F)F)ccc3-c3ccccc3)nc12 [Ex. 4.170] | 11 nM | 1430 nM |
| C=C1CC(c2nc3cccc(Cl)c3[nH]2)N(C(=O)c2cc(C)sc2-c2ccc(C)c(C)c2)C1 (stereo not drawn) [Ex. 6.84] | 8 nM | 14 nM |
| CO[C@@H]1C[C@@H](c2nc3ccc(Cl)c(C)c3[nH]2)N(C(=O)c2cc(F)ccc2-n2nccn2)C1 [Ex. 3.18] | 97 nM | 4 nM |
| C=C1C[C@@H](c2nc3cc(Cl)c(C(F)(F)F)cc3[nH]2)N(C(=O)c2c(-n3nccn3)ccc(C)c2F)C1 [Ex. 6.180] | 5 nM | 4 nM |
| Cc1nc(C(=O)N2CC[C@H](C)[C@H]2c2nc3c(C)c(Cl)ccc3[nH]2)c(-c2cccc(Cl)c2)s1 [Ex. 4.21] | 1 nM | 133 nM |
| Cc1ccc(-n2nccn2)c(C(=O)N2CCC[C@@]2(C)c2nc3cc(C)c(C)cc3[nH]2)n1 [Ex. 5.62] | 35 nM | 130 nM |
| C=C1C[C@@H](c2nc3cc(SC)ccc3[nH]2)N(C(=O)c2cc(C)ccc2-n2nccn2)C1 [Ex. 6.60] | 83 nM | 3 nM |
| Cc1nc(C(=O)N2CCCC2c2nc3c(Br)cc(F)cc3[nH]2)c(-c2cccc(Cl)c2)s1 (stereo not drawn) [Ex. 1.114] | 30 nM | 74 nM |
| C[C@@]1(c2nc3cc(C(F)(F)F)c(Cl)cc3[nH]2)CCCN1C(=O)c1ccccc1-n1cccn1 [Ex. 5.141] | 27 nM | 244 nM |
| C[C@@]1(c2nc3cc(Cl)c(C(F)(F)F)cc3[nH]2)CCCN1C(=O)c1nc(-c2ccc(F)cc2)sc1-c1ccc(F)cc1 [Ex. 5.291] | 48 nM | 347 nM |
| Cc1nc(C(=O)N2CCCC2c2nc3cc(Cl)ccc3[nH]2)c(-c2cccc(Cl)c2)s1 (stereo not drawn) [Ex. 1.97] | 95 nM | 314 nM |
| Cc1nc(C(=O)N2C[C@H](F)C[C@H]2c2nc3c(C)cccc3[nH]2)c(-c2ccccc2)s1 [Ex. 2.3] | 67 nM | 61 nM |
| C=C1C[C@@H](c2nc3ccc(Cl)c(C)c3[nH]2)N(C(=O)c2cc(C)c(C)cc2-n2nccn2)C1 [Ex. 6.130] | 11 nM | 0.6 nM |
| COc1ccc(-c2ccccc2F)c(C(=O)N2CCC[C@@]2(C)c2nc3c(C)c(Cl)ccc3[nH]2)c1F [Ex. 5.298] | 15 nM | 21 nM |
| Cc1ccc(-n2nccn2)c(C(=O)N2CCC[C@@]2(C)c2nc3cc(F)c(Br)cc3n2C)c1 [Ex. 7.32] | 7 nM | 124 nM |
| COc1ccc(-n2nccn2)c(C(=O)N2C[C@H](OC)C[C@H]2c2nc3ccc(Cl)c(C)c3[nH]2)c1 [Ex. 3.12] | 13 nM | 1 nM |
| Cc1cc2nc([C@]3(C)CCCN3C(=O)c3ccccc3-c3cccc(F)c3)[nH]c2cc1C [Ex. 5.105] | 24 nM | 28 nM |
| Cc1ccc(-n2nccn2)c(C(=O)N2CC[C@H](C)[C@H]2c2nc3c(C)cc(Cl)cc3[nH]2)c1F [Ex. 4.99] | 13 nM | 981 nM |
| COc1cc2nc([C@@H]3[C@@H](C)CCN3C(=O)c3nc(C)sc3-c3ccc(C(F)(F)F)cc3)[nH]c2cc1OC [Ex. 4.50] | 373 nM | 4220 nM |
| Cc1ccc(-c2ccc(C#N)cc2)c(C(=O)N2CCC[C@@]2(C)c2nc3cc(C(F)(F)F)ccc3[nH]2)c1 [Ex. 5.193] | 24 nM | 203 nM |
| C=C1C[C@@H](c2nc3cc(C)c(C)cc3[nH]2)N(C(=O)c2cc(C)ccc2-n2cccn2)C1 [Ex. 6.201] | 148 nM | 25 nM |
| CO[C@H]1CN(C(=O)c2nc(C)sc2-c2cccc(Cl)c2)C(C)(c2nc3c(C)cccc3[nH]2)C1 (stereo partly drawn) [Ex. 3.28] | 10 nM | 19 nM |

— patent publication US9732075B2, “Benzimidazole-proline derivatives” (IDORSIA PHARMACEUTICALS LTD, priority 2012, dated 2017)
